In PMC6332095, “Purification and Partial Characterization of β-Glucosidase in Chayote (Sechium edule)” (Molecules, 2015):

Tests used:
[1] = tested on: T1, β-glucosidase in Sechium edule (Sebg; chayotase); assay: p-nitrophenol release, […] nm; Michaelis-Menten nonlinear fit; format: biochemical; conditions: standard assay: sodium citrate 0.2 M, pH 5.0, 25 °C
T1 construct: native purification from fruit pulp (epicarp and mesocarp); homodimer 116 kDa, 58 kDa subunits; tryptic peptides MGFDAYR, FSIAWSR, WFENFLK, DFSEVCFK, EAMQAGVRVK, FGLTYIDYK, NNLK

[2] = target: β-glucosidase from chayote (Sechium edule) (Sechium edule); assay: native gel or EMSA; native PAGE on 5%, 7.5%, 10% and 12.5% polyacrylamide gels, pH 8.3, Hedrick and Smith method; native mass 116 kDa compared with the 58 kDa subunit on SDS-PAGE

Row | Compound | Km [1] | stoichiometry N [2]
1 | O=[N+]([O-])c1ccc(O[C@@H]2O[C@H](CO)[C@@H](O)[C@H](O)[C@H]2O)cc1 [p-nitrophenyl-β-D-glucopyranoside] | 4.88 mM | 
2 | β-glucosidase from chayote (Sechium edule) (enzyme) |  | 2
